Series [1] addresses Sodium channel protein type 5 subunit alpha (Homo sapiens, UniProt Q14524). In words: Inhibition of sodium channel blockade in CHO cells expressing human cardiac (hHI) sodium channel. The class given is cell-based.
The target of series [2] is Sodium channel protein type 2 subunit alpha (Homo sapiens, UniProt Q99250). Description: Inhibition of sodium channel blockade in CHO cells expressing neuronal mammalian type IIA (CNaIIA) sodium channel. The class given is cell-based.
The next series has as its system Mus musculus. In words: In vivo anticonvulsant activity tested as percent inhibition of audiogenic antiseizure in DBA/2 mice at a dose of 20 mg/kg, ip. The series is classed as functional. The settings on record: route intraperitoneal.
Series [3] in a line: Partition coefficient (logD). The class given is physicochemical. To be noted: octanol/water.
Series [4] is described as follows: pKa value determined. The class given is physicochemical.

44 molecules from ChEMBL document CHEMBL1134151, “Solution-phase, parallel synthesis and pharmacological evaluation of acylguanidine derivatives as potential sodium channel blockers” (Bioorg Med Chem Lett, 2001) can be followed below.

In general, IC50 refers to the midpoint of a concentration-inhibition curve. Lower therefore signals greater potency in that assay. What is called inhibition in vivo is the relative decrease from the control value, in per cent. A low value points to a weak effect. Usually logD stands for the decadic logarithm of the distribution of all forms, ionised or not, between an organic phase and buffer at a given pH. A higher logD goes with higher lipophilicity. One may read the pKa as the negative logarithm of the acid dissociation constant. A higher pKa goes with a group that holds its proton tightly.

Sequence of Sodium channel protein type 5 subunit alpha (Q14524 whole entry): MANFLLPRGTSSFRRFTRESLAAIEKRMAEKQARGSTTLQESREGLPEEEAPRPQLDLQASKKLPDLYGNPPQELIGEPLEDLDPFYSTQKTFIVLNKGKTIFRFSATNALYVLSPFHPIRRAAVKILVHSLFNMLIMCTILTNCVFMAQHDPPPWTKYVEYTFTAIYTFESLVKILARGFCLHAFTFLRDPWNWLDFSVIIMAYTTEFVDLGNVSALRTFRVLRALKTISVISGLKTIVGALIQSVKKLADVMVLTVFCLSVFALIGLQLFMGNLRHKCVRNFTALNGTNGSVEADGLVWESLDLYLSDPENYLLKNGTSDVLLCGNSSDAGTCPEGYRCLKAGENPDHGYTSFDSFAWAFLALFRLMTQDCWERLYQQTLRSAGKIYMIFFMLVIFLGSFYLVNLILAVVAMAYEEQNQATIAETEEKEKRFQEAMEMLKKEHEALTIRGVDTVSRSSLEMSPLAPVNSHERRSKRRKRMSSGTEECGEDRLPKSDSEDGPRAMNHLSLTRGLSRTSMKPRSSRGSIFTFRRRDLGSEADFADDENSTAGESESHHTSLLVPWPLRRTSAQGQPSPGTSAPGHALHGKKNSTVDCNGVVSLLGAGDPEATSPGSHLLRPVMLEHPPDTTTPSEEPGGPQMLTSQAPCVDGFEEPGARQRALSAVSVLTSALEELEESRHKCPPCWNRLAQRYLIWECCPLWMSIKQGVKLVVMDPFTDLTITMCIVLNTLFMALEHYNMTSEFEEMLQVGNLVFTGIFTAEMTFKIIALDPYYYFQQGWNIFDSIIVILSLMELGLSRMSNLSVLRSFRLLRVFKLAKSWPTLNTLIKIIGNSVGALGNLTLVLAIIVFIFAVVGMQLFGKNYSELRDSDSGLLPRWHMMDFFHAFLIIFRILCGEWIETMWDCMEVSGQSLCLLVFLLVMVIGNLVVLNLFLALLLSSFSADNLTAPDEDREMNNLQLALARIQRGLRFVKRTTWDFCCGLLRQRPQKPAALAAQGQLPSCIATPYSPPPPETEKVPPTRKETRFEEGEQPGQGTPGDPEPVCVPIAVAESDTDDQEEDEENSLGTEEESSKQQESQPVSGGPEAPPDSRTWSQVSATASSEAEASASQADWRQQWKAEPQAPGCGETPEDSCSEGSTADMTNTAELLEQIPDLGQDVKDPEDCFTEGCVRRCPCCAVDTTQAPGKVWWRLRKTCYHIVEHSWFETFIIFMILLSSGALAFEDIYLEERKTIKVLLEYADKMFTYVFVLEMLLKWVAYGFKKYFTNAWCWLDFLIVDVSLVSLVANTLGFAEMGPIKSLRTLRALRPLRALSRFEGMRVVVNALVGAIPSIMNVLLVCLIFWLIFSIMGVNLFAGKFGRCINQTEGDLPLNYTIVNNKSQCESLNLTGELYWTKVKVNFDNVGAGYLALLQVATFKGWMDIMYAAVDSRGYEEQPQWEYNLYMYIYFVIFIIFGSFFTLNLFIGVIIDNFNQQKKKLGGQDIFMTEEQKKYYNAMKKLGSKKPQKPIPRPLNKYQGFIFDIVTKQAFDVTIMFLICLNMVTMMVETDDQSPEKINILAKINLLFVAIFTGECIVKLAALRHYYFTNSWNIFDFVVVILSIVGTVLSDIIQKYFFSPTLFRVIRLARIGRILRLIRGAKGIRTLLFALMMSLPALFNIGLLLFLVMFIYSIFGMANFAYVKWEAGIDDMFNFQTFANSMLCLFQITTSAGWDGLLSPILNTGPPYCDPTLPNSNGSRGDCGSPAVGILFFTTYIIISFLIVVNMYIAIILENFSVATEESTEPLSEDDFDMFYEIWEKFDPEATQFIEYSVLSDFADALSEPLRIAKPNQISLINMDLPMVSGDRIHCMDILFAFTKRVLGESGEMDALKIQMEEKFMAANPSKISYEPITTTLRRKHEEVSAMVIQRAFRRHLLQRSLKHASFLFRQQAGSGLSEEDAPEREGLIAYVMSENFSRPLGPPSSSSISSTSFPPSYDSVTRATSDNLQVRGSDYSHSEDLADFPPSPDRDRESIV
Sequence of Sodium channel protein type 2 subunit alpha (Q99250 whole entry): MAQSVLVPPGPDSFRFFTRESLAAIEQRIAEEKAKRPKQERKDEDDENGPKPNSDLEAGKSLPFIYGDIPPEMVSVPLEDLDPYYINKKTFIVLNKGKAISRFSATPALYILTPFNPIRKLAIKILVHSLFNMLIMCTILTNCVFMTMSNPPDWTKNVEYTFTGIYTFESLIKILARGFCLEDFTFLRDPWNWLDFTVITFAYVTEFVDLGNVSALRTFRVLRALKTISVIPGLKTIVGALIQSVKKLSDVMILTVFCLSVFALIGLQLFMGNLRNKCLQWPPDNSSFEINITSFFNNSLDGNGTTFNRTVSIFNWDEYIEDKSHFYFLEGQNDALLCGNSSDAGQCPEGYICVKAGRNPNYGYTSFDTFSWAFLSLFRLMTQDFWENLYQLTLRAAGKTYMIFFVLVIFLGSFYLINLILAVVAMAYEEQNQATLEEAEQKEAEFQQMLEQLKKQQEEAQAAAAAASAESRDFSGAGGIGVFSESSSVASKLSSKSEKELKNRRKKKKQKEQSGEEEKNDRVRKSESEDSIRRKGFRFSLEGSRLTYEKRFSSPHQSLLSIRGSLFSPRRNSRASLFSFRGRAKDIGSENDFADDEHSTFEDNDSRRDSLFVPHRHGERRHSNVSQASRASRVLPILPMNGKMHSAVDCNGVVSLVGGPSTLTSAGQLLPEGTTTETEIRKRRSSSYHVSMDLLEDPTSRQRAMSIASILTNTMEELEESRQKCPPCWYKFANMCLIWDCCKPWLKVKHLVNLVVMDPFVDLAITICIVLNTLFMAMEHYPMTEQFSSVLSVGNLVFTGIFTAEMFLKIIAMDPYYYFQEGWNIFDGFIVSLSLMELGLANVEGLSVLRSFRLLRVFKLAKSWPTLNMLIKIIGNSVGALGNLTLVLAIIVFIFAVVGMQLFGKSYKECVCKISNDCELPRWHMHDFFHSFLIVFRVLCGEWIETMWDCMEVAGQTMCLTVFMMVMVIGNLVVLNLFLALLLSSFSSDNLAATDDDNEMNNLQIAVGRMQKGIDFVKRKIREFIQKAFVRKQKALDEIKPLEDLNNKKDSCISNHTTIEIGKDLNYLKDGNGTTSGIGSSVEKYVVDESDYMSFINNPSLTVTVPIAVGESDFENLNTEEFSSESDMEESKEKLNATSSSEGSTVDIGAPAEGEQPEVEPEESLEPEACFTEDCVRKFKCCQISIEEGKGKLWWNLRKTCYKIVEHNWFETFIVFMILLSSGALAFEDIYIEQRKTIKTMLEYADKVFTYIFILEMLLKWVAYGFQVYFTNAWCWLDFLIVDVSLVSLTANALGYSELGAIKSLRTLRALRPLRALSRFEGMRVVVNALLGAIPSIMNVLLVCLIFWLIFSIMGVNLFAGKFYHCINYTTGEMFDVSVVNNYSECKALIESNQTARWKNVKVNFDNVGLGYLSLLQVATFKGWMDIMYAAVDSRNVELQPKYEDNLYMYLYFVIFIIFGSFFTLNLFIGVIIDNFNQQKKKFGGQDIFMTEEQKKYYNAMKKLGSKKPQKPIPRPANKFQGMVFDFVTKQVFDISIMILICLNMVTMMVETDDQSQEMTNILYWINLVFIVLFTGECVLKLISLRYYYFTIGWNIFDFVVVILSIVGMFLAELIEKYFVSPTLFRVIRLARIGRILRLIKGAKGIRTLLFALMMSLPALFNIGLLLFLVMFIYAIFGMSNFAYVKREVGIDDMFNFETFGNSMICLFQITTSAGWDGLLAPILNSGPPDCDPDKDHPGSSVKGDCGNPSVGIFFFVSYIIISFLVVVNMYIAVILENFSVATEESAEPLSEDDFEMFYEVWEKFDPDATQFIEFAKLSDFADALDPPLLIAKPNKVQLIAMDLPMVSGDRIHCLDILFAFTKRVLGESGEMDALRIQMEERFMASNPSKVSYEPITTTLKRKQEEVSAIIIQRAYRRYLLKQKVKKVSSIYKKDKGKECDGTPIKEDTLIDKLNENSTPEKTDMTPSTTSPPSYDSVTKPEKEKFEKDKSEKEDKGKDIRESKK

For the molecule `COc1cc(NC(=N)NC(=O)c2ccc(C)cc2)cc(OC)c1OC`, the IC50 in series [1] was 24.4 µM; in series [2], 1.92 µM.
As for `Cc1ccc(C(=O)N/C(N)=N\c2ccccc2C(C)C)cc1`, the half-maximal inhibitory concentration (IC50) in series [1] turned out to be 4.5 µM; in series [2], 4.36 µM.
`Cc1ccc(C(=O)NC(=N)NCCCc2ccccc2)cc1`: the results for the IC50 in series [1] and in series [2] were 5.25 µM and 6.03 µM, respectively.
`Cc1ccc(C(=O)NC(=N)Nc2cccc3ccccc23)cc1` displayed an IC50 in series [2] of 3.29 µM.
Consider `Cc1ccc(C(=O)NC(=N)Nc2ccc(OC(C)C)cc2)cc1`, for which the values for the IC50 in series [1] and in series [2] were 5.75 µM and 2.02 µM, respectively.
Take `Cc1ccc(C(=O)NC(N)=NCCOc2ccccc2)cc1`: the IC50 came to 14.2 µM in series [1] and 3.23 µM in series [2].
For the molecule `Cc1ccc(C(=O)NC(N)=Nc2cc(Br)ccc2Br)cc1`, the IC50 in series [2] is above 25 µM.
Consider `Cc1ccccc1C(=O)NC(N)=NCCCCc1ccccc1`, for which the IC50 in series [1] stood at 1.75 µM; in series [2] it was 1.2 µM. Further, the inhibition in vivo at 20 mg/kg in the series with Mus musculus turned out to be 53%.
`Cc1ccc(C(=O)NC(=N)Nc2ccc(OCc3ccccc3)cc2)cc1` returned an IC50 in series [2] of 10.1 µM.
Turning to `Cc1ccc(C(=O)NC(=N)NCCCCCc2ccccc2)cc1`, the figures for the IC50 in series [1] and in series [2] were 3.6 µM and 2.11 µM, respectively. The inhibition in vivo at 20 mg/kg with Mus musculus came to 7%.
On to `Cc1ccc(C(=O)NC(N)=NCCc2ccccc2)cc1`, for which the IC50 in series [1] worked out at 5.65 µM; in series [2] it was 2.66 µM.
`Cc1ccc(C(=O)NC(=N)Nc2ccc(C(C)C)cc2)cc1` came in with a logD in series [3] of 4.4. Besides, the IC50 came to 19.7 µM in series [1] and 1.95 µM in series [2]. In addition, the inhibition in vivo at 20 mg/kg with Mus musculus is 30%. In series [4], this molecule yielded a pKa of 6.35.
`NC(=NCCCCc1ccccc1)NC(=O)c1ccc(Cl)c(Cl)c1`: the IC50 amounted to 15.5 µM in series [1] and 7.11 µM in series [2].
In the same order, the values of `Cc1ccc(C(=O)NC(=N)NCCc2cccs2)cc1` are 10.5 µM and 4.95 µM.
Regarding `CCCCOc1ccc(C(=O)NC(N)=NCCCCc2ccccc2)cc1`, the results for the half-maximal inhibitory concentration (IC50) in series [1] and in series [2] were 0.56 µM and 0.63 µM, respectively. The molecule further had an inhibition in vivo at 20 mg/kg in the series with Mus musculus of 97%.
For the molecule `N=C(NCCCCc1ccccc1)NC(=O)c1cccs1`, the IC50 in series [1] turned out to be 2.35 µM; in series [2], 4.31 µM.
The molecule `Cc1ccc(C(=O)NC(=N)N(C)c2cccc(I)c2)cc1` returned an IC50 in series [2] of 9.45 µM. That is a single-digit micromolar value.
For the molecule `Cc1ccc(C(=O)NC(N)=NCc2cccc3ccccc23)cc1`, the results for the 50% inhibitory concentration (IC50) in series [1] and in series [2] were 8.85 µM and 2.38 µM, respectively.
As to `CCOc1ccc(C(=O)NC(N)=NCCCCc2ccccc2)cc1`, the IC50 in series [1] is 1.1 µM; in series [2], 0.76 µM. Besides, in the series with Mus musculus, the inhibition in vivo at 20 mg/kg was found to be 60%.
Consider `Cc1ccc(C(=O)NC(=N)NCCCCc2ccccc2)cc1`, for which the half-inhibitory concentration (IC50) was 2.85 µM in series [1] and 1.14 µM in series [2]. The same molecule returned an inhibition in vivo at 20 mg/kg with Mus musculus of 75%. This molecule came in with a pKa in series [4] of 7.09.
On to `Cc1ccc(C(=O)NC(N)=NCCCOc2ccccc2)cc1`, for which the values for the half-maximal inhibitory concentration (IC50) in series [1] and in series [2] were 5.6 µM and 2.67 µM, respectively. In the series on Mus musculus, this molecule displayed an inhibition in vivo at 20 mg/kg of 54%.
In the case of `NC(=NCCCCc1ccccc1)NC(=O)c1cccc(Cl)c1Cl`, the IC50 in series [1] turned out to be 2.71 µM; in series [2], 1.48 µM.
Take `NC(=NCCCCc1ccccc1)NC(=O)c1ccco1`: the IC50 in series [1] stood at 7.9 µM; in series [2] it was 13.8 µM. For the same molecule, the inhibition in vivo at 20 mg/kg in the series with Mus musculus was determined as 5%.
As for `COc1cc(C(=O)NC(N)=NCCCCc2ccccc2)cc(OC)c1OC`, the half-inhibitory concentration (IC50) in series [1] worked out at 1.51 µM; in series [2], 1.39 µM.
As to `NC(=NCCCCc1ccccc1)NC(=O)c1c(Cl)cccc1Cl`, the IC50 came to 5.4 µM in series [1] and 5.03 µM in series [2].
For the molecule `Cc1ccc(C(=O)NC(=N)N2CCCc3ccc(C(F)(F)F)cc32)cc1`, the IC50 in series [2] is above 25 µM.
Consider `Cc1ccc(C(=O)NC(N)=NCc2ccccc2)cc1`, for which the half-inhibitory concentration (IC50) in series [2] was determined as 3.87 µM.
In series [2], `Cc1ccc(C(=O)NC(=N)Nc2ccc(C(C)(C)C)cc2)cc1` registered an IC50 above 24 µM.
For `NC(=NCCCCc1ccccc1)NC(=O)c1cccc2ccccc12`, the IC50 in series [1] amounted to 4.1 µM; in series [2], 0.86 µM. Further, the inhibition in vivo at 20 mg/kg in the series with Mus musculus stood at 9%.
`N=C(N)NC(=O)c1ccccc1` gave a pKa in series [4] of 6.98.
In turn, `Cc1ccc(C(=O)NC(N)=NCCCN(C)C)cc1` returned an IC50 in series [2] above 25 µM.
Still for that read-out and setting: for `Cc1ccc(C(=O)NC(=N)N(C)Sc2cccc(C)c2)cc1` the value was 5.44 µM.
`Cc1ccc(C(=O)NC(N)=NCCSCc2ccccc2)cc1`: the results for the IC50 in series [1] and in series [2] were 10.8 µM and 3.9 µM, respectively.
On to `COc1cccc2[nH]cc(CCN=C(N)NC(=O)c3ccc(C)cc3)c12`, for which the values for the IC50 in series [1] and in series [2] were 3.92 µM and 3.35 µM, respectively.
In the same order, the values of `Cc1ccc(C(=O)NC(N)=NCCc2ccc(Cl)cc2)cc1` are 8.5 µM and 1.97 µM.
`COc1ccc(C(=O)NC(=N)NCCCCc2ccccc2)cc1`: the half-maximal inhibitory concentration (IC50) in series [1] worked out at 2.1 µM; in series [2] it was 0.82 µM. In addition, in the series on Mus musculus, testing at 20 mg/kg gave an inhibition in vivo of 42%.
Take `CN=C(NCCCCc1ccccc1)NC(=O)c1ccc(C)cc1`: the figures for the IC50 in series [1] and in series [2] were 9 µM and 4.16 µM, respectively.
In the case of `NC(=NCCCCc1ccccc1)NC(=O)c1ccc(Cl)cc1`, the IC50 in series [1] amounted to 3.6 µM; in series [2], 4.3 µM.
With `Cc1ccc(C(=O)NC(=N)N2CCc3ccccc32)cc1`, the IC50 was above 100 µM in series [1] and 8.81 µM in series [2]. This molecule also showed an inhibition in vivo at 20 mg/kg with Mus musculus of 16%.
Turning to `COc1ccc2[nH]cc(CCN=C(N)NC(=O)c3ccc(C)cc3)c2c1`, the half-inhibitory concentration (IC50) in series [1] and in series [2] was 1.76 µM throughout.
Turning to `NC(=NCCCCc1ccccc1)NC(=O)c1cc(Cl)ccc1Cl`, the IC50 in series [1] was found to be 7.89 µM; in series [2], 3.25 µM.
`CCCC/N=C(/N)NC(=O)c1ccc(C)cc1`: the IC50 in series [1] is 9 µM; in series [2] it was 17.4 µM.
`N=C(N)N` [GUANIDINE] returned a pKa in series [4] of 12.6.
In turn, `N=C(N)Nc1ccccc1` [PHENYLGUANIDINE] displayed a pKa in series [4] of 10.8.
